Experimental data taken from patent US5597848A, “Benzenesulfonamide derivatives and use thereof” (Hokuriku Seiyaku Co., Ltd., priority 1992, dated 1997).

Experiments:
thromboxane A2 receptor = biological target: T1, thromboxane A2 receptor (Cavia porcellus, UniProt A0A286Y4I8); experiment: Thromboxane A2 antagonistic effect: inhibition of U-46619-induced platelet aggregation in guinea-pig platelet-rich plasma; type: cell-based, guinea-pigs; conditions: guinea-pig PRP, U-46619 2 μg/ml, 2 min at 37° C.; read-out: IC50 (50% inhibition against platelet aggregation)
T1 construct: platelet-rich plasma; endogenous in cells; host or cells: guinea-pig platelets in platelet-rich plasma
T1 sequence (A0A286Y4I8 1-347): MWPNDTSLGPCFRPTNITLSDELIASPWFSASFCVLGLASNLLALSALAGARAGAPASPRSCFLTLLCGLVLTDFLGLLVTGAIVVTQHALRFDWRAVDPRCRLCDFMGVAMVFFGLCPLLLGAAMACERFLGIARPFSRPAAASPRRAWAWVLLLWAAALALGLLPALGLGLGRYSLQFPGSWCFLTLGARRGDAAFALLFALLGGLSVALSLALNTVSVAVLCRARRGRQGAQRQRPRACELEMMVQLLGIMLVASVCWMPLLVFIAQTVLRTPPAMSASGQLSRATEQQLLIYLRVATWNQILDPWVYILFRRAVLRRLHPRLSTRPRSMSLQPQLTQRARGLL
Procedure: Blood was collected from the abdominal aorta of guinea-pigs (about 400 g wt.) into 1/10 volume of 3.8% sodium citrate, and then platelet-rich plasma (PRP: 6×10^5 cells/μl) was obtained by centrifugation. A cuvette was filled with PRP 190 μl and set in an aggregometer (Hema Tracer I; Niko Bioscience). Incubation was carried out for 2 min. at 37° C. after the addition of 1 μl of dimethyl sulfoxide solution of test compounds. To the PRP, 10 μl of U-46619 (Cayman), a thromboxane A2 /prostaglandin H2 receptor agonist and potent platelet aggregation inducer, was added at the final concentration of 2 μg/ml, and platelet aggregation was measured by an aggregometer.

[1] = test system: broncho-constriction induced by U-46619; experiment: Inhibitory effect on broncho-constriction induced by U-46619 (Konzett-Roessler method, oral); type: in vivo, Male hartley guinea-pigs; conditions: 0.3 mg/kg orally, 2 hrs before U-46619 4 μg/kg
Procedure: Airway resistance was evaluated according to the method of Konzett-Roessler[Naunyn-Schmiedberg's Arch. Exp. Path. Pharmak., Vol. 195, 71 (1940)]. Male hartley guinea-pigs (about 400 g wt.) were anesthetized with urethane (1.5 g/kg, i.p.) and ventilated by an artificial respirator (Model 683; Harvard). At that time, overflowed air volume above the pressure of about 12 cm H2 O was measured by using a sensor (Model 7020; Ugo basile) and the value was used as an index of broncho-constriction. 0.3 mg/kg (5 ml/kg) of test compounds suspended in 5% gum Arabic was administered orally to Guinea-pigs fasted beforehand for 24 hr. After 2 hrs, U-46619 (4 μg/kg; Cayman) was administered through the cervical vein, and then maximal response was measured. Inhibitory rates compared to the reference group were calculated based on the response rate normalized by the complete closure as 100%.

[2] = test system: broncho-constriction induced by leukotriene D4; experiment: Inhibitory effect on broncho-constriction induced by leukotriene D4 (Konzett-Roessler method, oral); type: in vivo, male Hartley guinea-pig; conditions: Cavia porcellus, po; 30 mg/kg orally, leukotriene D4 1 μg/kg after 2 hr; indomethacin and propranolol pretreatment; read-out: Inhibition rate
Procedure: Airway resistance was evaluated according to the method of Konzett-Roessler[Naunyn-Schmiedberg's Arch. Exp. Path. Pharmak., Vol. 195, 71 (1940)]. After male Hartley guinea-pig fasted beforehand for 24 hr were anesthetized with urethane, overflowed air volume was measured under artificial ventilation as an index of broncho-constriction. 30 mg/kg (5 ml/kg) of test compounds suspended in 5% gum Arabic were administered orally to […]. Leukotriene D4 (1 μg/kg; ULTRA FINE) was administered through the cervical vein after 2 hr, and then values were measured at 2 min after the time when responses became maximum. Inhibitory rates compared to the control group were calculated based on the response rate normalized by the overflowed volume at complete closure as 100% broncho-constriction state. Indomethacin (2 mg/kg, i.v.) and propranolol (1 mg/kg, i.v.) were administered at 10 min and 5 min before the administration of leukotriene D4, respectively.

leukotriene D4 = biological target: T2, leukotriene D4 (Cavia porcellus, UniProt Q2NNR5); experiment: Leukotriene D4 antagonistic effect in isolated trachea (Schild method); parameters: species or system male Hartley guinea-pigs; conditions: isolated trachea, 30 min treatment, indomethacin 3×10^-6 M, Krebs 37° C.
T2 construct: tracheas were isolated from male Hartley guinea-pigs; from tissue; host or cells: isolated trachea of male Hartley guinea-pigs
T2 sequence (Q2NNR5 1-340): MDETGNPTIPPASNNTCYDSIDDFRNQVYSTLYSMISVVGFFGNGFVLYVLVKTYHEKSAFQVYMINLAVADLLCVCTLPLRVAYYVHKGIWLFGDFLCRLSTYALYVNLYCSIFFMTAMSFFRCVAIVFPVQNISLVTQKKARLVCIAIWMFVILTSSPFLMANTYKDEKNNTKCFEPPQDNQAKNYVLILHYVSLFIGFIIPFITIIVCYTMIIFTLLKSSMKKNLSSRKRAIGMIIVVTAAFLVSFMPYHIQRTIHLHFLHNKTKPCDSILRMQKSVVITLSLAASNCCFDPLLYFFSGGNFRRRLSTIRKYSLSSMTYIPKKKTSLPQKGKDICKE
Procedure: According to an ordinary method, tracheas were isolated from male Hartley guinea-pigs, and ring specimens of approximately […] length were prepared. These specimens were suspended isotonically in organ baths that contained Krebs solution at 37° C. under a resting tension of 0.5 g. After repeated contractions with acetylcholine (1×10^-6 M; Ovisot for injection, Daiichi Seiyaku), and the first concentration-response curves was obtained by cummulative applications of leukotriene D4 (ULTRA FINE) into the organ baths. After treatments with test compounds at adequate concentrations for 30 min, the second concentration-response curves were obtained in the same manner as first applications. pKB values were calculated using these two concentration-response curves according to the method of Schild [Pharmacological Review, Vol. 9, 242 (1957)]. Indomethacin (3×10^-6 M; Sigma) was added beforehand to the organ bath to eliminate possible affections by thromboxane A2 and prostaglandin produced by stimulus of leukotriene D4 [Japan J. Pharmacol., Vol. 60, 227 (1992)].

[3] = biological target: T3, thromboxane A2 synthetase (Homo sapiens, UniProt P24557); experiment: Inhibitory effect on thromboxane A2 synthetase (human platelet membrane fraction, thromboxane B2 RIA); type: biochemical; conditions: 3 min at 25° C., read-out: IC50 (50% inhibition of the enzyme activity)
T3 construct: human platelet membrane fraction (RAN) as a source of thromboxane A2 synthetase; purchased RAN; host or cells: human platelet membrane fraction
T3 sequence (P24557 1-533): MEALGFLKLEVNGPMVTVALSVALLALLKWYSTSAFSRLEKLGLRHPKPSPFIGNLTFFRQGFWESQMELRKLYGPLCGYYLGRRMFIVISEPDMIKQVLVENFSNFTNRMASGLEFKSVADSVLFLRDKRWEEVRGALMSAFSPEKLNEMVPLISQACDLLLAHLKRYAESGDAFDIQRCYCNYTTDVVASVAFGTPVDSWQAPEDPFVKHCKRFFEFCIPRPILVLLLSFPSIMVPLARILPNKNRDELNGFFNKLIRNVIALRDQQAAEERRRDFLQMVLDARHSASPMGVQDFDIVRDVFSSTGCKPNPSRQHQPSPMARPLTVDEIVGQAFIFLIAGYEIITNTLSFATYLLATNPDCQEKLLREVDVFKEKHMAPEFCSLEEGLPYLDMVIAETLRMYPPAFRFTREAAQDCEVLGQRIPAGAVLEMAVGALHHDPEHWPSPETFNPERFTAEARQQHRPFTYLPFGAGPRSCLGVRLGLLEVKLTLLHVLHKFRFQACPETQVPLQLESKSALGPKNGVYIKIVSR
Procedure: 100 μg/ml (285 μl) of the commercially available human platelet membrane fraction (RAN) as a source of thromboxane A2 synthetase, dimethyl sulfoxide solution of test compounds (10 μl) and 100 μg/ml (5 μl) of prostaglandin H2 (Cayman) were mixed and reaction was carried out for 3 min at 25° C. Amount of thromboxane B2, a stable metabolite derived from thromboxane A2 produced, was measured by RIA method (TXB2 quantification kit; NEN).

| IC50 (thromboxane A2 receptor) | Kb (leukotriene D4) | pKB (leukotriene D4) | IC50 [3] | SMILES | Inhibition rate [1] | inhibition in vivo at 30 mg/kg [2] |
| --- | --- | --- | --- | --- | --- | --- |
| 400 nM |  |  |  | CCCCCC(NS(=O)(=O)c1ccc(Cl)cc1)c1ccc(CCCC(=O)O)cc1 (stereo not shown) [Example 67, 4-[4-[1-(4-Chlorophenylsulfonylamino)hexyl]phenyl]butyric Acid] | 86% | 80% |
|  | 126 nM |  |  | CCCCCC(NS(=O)(=O)c1ccc(Cl)cc1)c1ccc(CCCCC(=O)O)cc1 (stereo not shown) [Example 106, 5-[4-[1-(4-Chlorophenylsulfonylamino)hexyl]phenyl]valeric Acid] |  | 58% |
| 500 nM | 158 nM |  |  | CC(C)CCCCC(NS(=O)(=O)c1ccc(Cl)cc1)c1ccc(CCCC(=O)O)cc1 (stereo not shown) [Example 108, 4-[4-[1-(4-Chlorophenylsulfonylamino)-6-methylheptyl]phenyl]-butyric Acid] |  | 82% |
| 320 nM | 126 nM |  |  | CCCCCCC(NS(=O)(=O)c1ccc(Cl)cc1)c1ccc(CCCC(=O)O)cc1 (stereo not shown) [Example 99, 4-[4-[1-(4-Chlorophenylsulfonylamino)heptyl]phenyl]butyric Acid] |  | 64% |
| 630 nM | 1000 nM |  |  | O=C(O)CCCc1ccc(C(Cc2ccc(Cl)cc2)NS(=O)(=O)c2ccc(Cl)cc2)cc1 (stereo not shown) [Example 96, 4-[4-[2-(4-Chlorophenyl)-1-(4-chlorophenylsulfonylamino)ethyl]phenyl]butyric Acid] | 89% | 43% |
| 1000 nM | 126 nM |  |  | O=C(O)CCCc1ccc(C(CCC2CCCCC2)NS(=O)(=O)c2ccc(Cl)cc2)cc1 (stereo not shown) [Example 80, 4-[4-[1-(4-Chlorophenylsulfonylamino)-3-cyclohexylpropyl]phenyl]butyric Acid] |  | 60% |
| 320 nM | 398 nM |  |  | O=C(O)CCCc1ccc(C(CCc2ccccc2)NS(=O)(=O)c2ccc(Cl)cc2)cc1 (stereo not shown) [Example 98, 4-[4-[1-(4-Chlorophenylsulfonylamino)-3-phenylpropyl]phenyl]butyric Acid] | 84% | 57% |
|  |  |  |  | CCCCCC(NS(=O)(=O)c1ccc(Br)cc1)c1ccc(CCCC(=O)O)cc1 (stereo not shown) [Example 104, 4-[4-[1-(4-Bromophenylsulfonylamino)hexyl]phenyl]butyric Acid] |  | 83% |
| 320 nM |  | 5.9 |  | Cc1ccc(CC(NS(=O)(=O)c2ccc(Cl)cc2)c2ccc(CCCC(=O)O)cc2)cc1 (stereo not shown) [Example 97, 4-[4-[1-(4-Chlorophenylsulfonylamino)-2-(p-tolyl)ethyl]phenyl]butyric Acid] | 88% | 56% |
| 200 nM |  |  | 2000 nM | CC(C)C(NS(=O)(=O)c1ccc(Cl)cc1)c1ccc(CCCC(=O)O)cc1 (stereo not shown) [Example 69, 4-[4-[1-(4-Chlorophenylsulfonylamino)-2-methylpropyl]phenyl]butyric Acid] |  |  |
| 320 nM | 794 nM |  |  | CCCCC(NS(=O)(=O)c1ccc(Cl)cc1)c1ccc(CCCC(=O)O)cc1 (stereo not shown) [Example 66, 4-[4-[1-(4-Chlorophenylsulfonylamino)pentyl]phenyl]butyric Acid] | 85% | 81% |
|  |  |  | 2000 nM | CC(NS(=O)(=O)c1ccc(Cl)cc1)c1ccc(CCCC(=O)O)cc1 (stereo not shown) [Example 63, 4-[4-[1-(4-Chlorophenylsulfonylamino)ethyl]phenyl]butyric Acid] |  |  |
|  |  |  |  | CCCCCC(NS(=O)(=O)c1ccc(F)cc1)c1ccc(CCCC(=O)O)cc1 (stereo not shown) [Example 105, 4-[4-[1-(4-Fluorophenylsulfonylamino)hexyl]phenyl]butyric Acid] |  | 82% |
|  | 200 nM |  |  | CCCCC(NS(=O)(=O)c1ccc(Cl)cc1)c1ccc(CCCCC(=O)O)cc1 (stereo not shown) [Example 102, 5-[4-[1-(4-Chlorophenylsulfonylamino)pentyl]phenyl]valeric Acid] |  | 50% |
| 320 nM | 100 nM |  |  | O=C(O)CCCc1ccc(C(CC2CCCCC2)NS(=O)(=O)c2ccc(Cl)cc2)cc1 (stereo not shown) [Example 79, 4-[4-[1-(4-Chlorophenylsulfonylamino)-2-cyclohexylethyl]phenyl]butyric Acid] | 55% |  |
| 250 nM | 100 nM |  |  | CC(C)CCCC(NS(=O)(=O)c1ccc(Cl)cc1)c1ccc(CCCC(=O)O)cc1 (stereo not shown) [Example 107, 4-[4-[1-(4-Chlorophenylsulfonylamino)-5-methylhexyl]phenyl]butyric Acid] |  | 83% |
| 400 nM | 200 nM |  |  | CC(C)CCC(NS(=O)(=O)c1ccc(Cl)cc1)c1ccc(CCCC(=O)O)cc1 (stereo not shown) [Example 71, 4-[4-[1-(4-Chlorophenylsulfonylamino)-4-methylpentyl]phenyl]butyric Acid] |  | 68% |
